5 molecules from PMC9821843, “Powerful Potential of Polyfluoroalkyl-Containing 4-Arylhydrazinylidenepyrazol-3-ones for Pharmaceuticals” (Molecules, 2022) can be followed below.

Data set [1] is described as follows: ABTS radical cation scavenging activity assay. Set-up: key to ABTS•+-scavenging activity, TEAC (trolox equivalent antioxidant capacity): TEAC = ratio of compound slope to Trolox slope vs ABTS absorbance. To be noted: mean ± SEM; for ABTS•+-scavenging activity, TEAC (trolox equivalent antioxidant capacity): n.a. = inactive. As for the experimental part: Radical scavenging activity of the compounds was evaluated by the ABTS radical cation (ABTS^•+) scavenging assay by the ability of the compounds to decolorize the ABTS^•+ solution [112] with some modifications. Trolox was used as a reference standard. Edaravone was used as the comparison compound. All tested compounds and standards were dissolved in DMSO. ABTS (2,2′-azinobis-(3-ethylbenzothiazoline-6-sulfonic acid)) was purchased from Tokyo Chemical Industry Co. Ltd. (Tokyo, Japan). Potassium persulfate (di-potassium peroxdisulfate), Trolox® (6-hydroxy-2,5,7,8-tetramethychroman-2-carboxylic acid), ascorbic acid, DMSO and HPLC-grade ethanol were obtained from Sigma-Aldrich Chemical Co. Aqueous solutions were prepared using deionized water.
The solution of ABTS^•+ was produced by mixing 7 mM ABTS aqueous solution with 2.45 mM potassium persulfate aqueous solution in equal quantities and allowing them to react for 12–16 h at room temperature in the dark. Radical scavenging capacity of the compounds was analyzed by mixing 10 μL of compound with 240 μL of ABTS^•+ working solution in ethanol (100 μM final concentration), and after 1 h of incubation at 30 °C the decrease in absorbance was measured spectrophotometrically at 734 nm using a Bio-Rad xMark microplate UV/VIS spectrophotometer (Bio-Rad, Hercules, CA, USA). The compounds were tested in the concentration range of 5 × 10^–7–4 × 10^–4 M. Ethanol blanks were run in each assay. Values were obtained from five replicates of each sample and three independent experiments.
Antioxidant activity was calculated as Trolox equivalent antioxidant capacity (TEAC values), consisting of the ratio between the slopes obtained from the linear correlation for concentrations of the tested compounds and Trolox with absorbance of ABTS radical. For the test compounds, which reduce ABTS^•+ absorbance by more than 60% at 100 µM, we also determined IC50 values as 50% reduction of the ABTS radical. The calculations were carried out using Origin 6.1 for Windows. Results were presented as mean ± SEM, calculated using GraphPad Prism version 6.05 for Windows, GraphPad Software.

For data set [2], the system named is Epidermophyton floccosum RCPF F 1659/17. Kind of data set: Antifungal susceptibility testing, E. floccosum. Conditions: Epidermophyton floccosum, RCPFF1659/17, read-out: MIC for fungi strains inhibition, E. floccosum.
From the text: (§2) The solvent was DMSO. […] In each test, a growth control and a sterility control were used.
Data set [3] relates to Neisseria gonorrhoeae ATCC 49226/NCTC 12700. Briefly: Antibacterial activity against Neisseria gonorrhoeae. Conditions: read-out: MIC against Neisseria gonorrhoeae. It counts as cell-based. Here is the method: Antibacterial activity testing was done on the growth medium Difco GC medium base (Becton Dickinson, Franklin Lakes, NJ, USA) supplemented with 1% IsoVitaleX. Dilutions of chemical compounds were carried out in the range of 250–0.12 μg/mL in 24 well sterile plates (Sarstedt, Germany). Daily cultures of control bacterial strains were identified on a VITEK MS analyzer (BioMérieux, Marcy-l’Étoile, France) by MALDI-TOF mass spectrometry. The inoculation dose of N. gonorrhoeae inoculum was 10^5 CFU/mL.

The nature of data set [4]: Acute toxicity evaluation in mice (ip). To be noted: CD-1, mouse, in vivo, 300 mg/kg. Here is the method:
The toxicity evaluation was performed on CD-1 mice. […] The tested compounds in 1% starch mucilage were injected intraperitoneally into three mice. Then, animals were observed during 14 days, the number of deaths was counted and % of viability calculated.

A short description of data set [5]: Oxygen radical absorbance capacity (ORAC-FL) assay. Conditions: n.a. = inactive; i.t.s. = interferes with test system. The source says: We evaluated the primary antioxidant activity of synthesized 4-AHPs 5–9 in comparison with their non-fluorinated analogues 9a,b using three standard tests: ABTS, FRAP (ferric reducing antioxidant power) and ORAC (oxygen radical absorbance capacity) assays. The ABTS assay evaluates the binding of a model ABTS radical cation (ABTS^•+), which is realized by the mechanism of single electron transfer (SET) and/or hydrogen atom transfer (HAT). The FRAP assay measures the ability of compounds to reduce the ferric 2,4,6-tripyridyl-s-triazine complex [Fe(TPTZ)2]^3+ to [Fe(TPTZ)2]^2+, which occurs exclusively by the SET mechanism. The ORAC-FL assay measures the oxidative degradation of the fluorescent molecule (FL – fluorescein) after being mixed with a free peroxyl radical generator such as 2,2′-azobis-(2-methylpropionamidine) dihydrochloride (AAPH) in the presence of antioxidant (tested compound). The ORAC-FL test describes the antioxidants’ ability to yield the hydrogen atom and, consequently, it is a HAT-based assay. Trolox was used in all tests as a reference antioxidant: the antioxidant activity of the test compounds was referred to the activity of Trolox. The well-known antioxidant Edaravone was also used for comparison.
The ORAC assay was performed according to the known method, with minor variations and described by us recently.

For data set [6], the target named is T1, equine serum butyrylcholinesterase (BChE, EC 3.1.1.8) (Equus caballus, UniProt P81908).
T1 construct: equine serum butyrylcholinesterase (BChE, EC 3.1.1.8); purchased Sigma-Aldrich (Saint Louis, MO, USA); host or cells: equine serum
Briefly: Inhibition of equine serum butyrylcholinesterase (Ellman assay). It counts as biochemical. Conditions: read-out: Inhibition % at 20 µM, Equine BChE. An excerpt:
(§1) The following enzymes were purchased from Sigma-Aldrich (Saint Louis, MO, USA): porcine liver carboxylesterase (CES, EC 3.1.1.1), human erythrocyte acetylcholinesterase (AChE, EC 3.1.1.7) and equine serum butyrylcholinesterase (BChE, EC 3.1.1.8). Substrates for CES, AChE and BChE were 4-nitrophenyl acetate (4-NPA), acetylthiocholine iodide (ATCh) and butyrylthiocholine iodide (BTCh), respectively, and the colorimetric reagent for the AChE and BChE assays was 5,5’-dithio-bis-(2-nitrobenzoic acid) (DTNB) (Sigma-Aldrich). All the kinetic experiments were performed under standard conditions, according to the protocol of IPAC RAS for a reversible inhibitors study.
Final concentrations of reactants were 0.33 mM DTNB, 0.02 unit/mL of AChE or BChE and 1 mM of substrate (ATCh or BTCh, respectively). Reagent blanks consisted of reaction mixtures without enzyme to assess non-enzymatic hydrolysis of substrates.
Test compounds were dissolved in DMSO. Reaction mixtures contained a final DMSO concentration of 2% (v/v). […] Substrate was then added and residual enzyme activity relative to an inhibitor-free control was measured using a Bio-Rad Benchmark Plus microplate reader (Marnes-la-Coquette, France).
Measurements were performed in a Bio-Rad Benchmark Plus microplate reader. Each experiment was performed in triplicate. Plots, linear regressions and values of IC50, were determined using Origin 6.1 for Windows, OriginLab (Northampton, MA, USA).

Data set [7] concerns Candida albicans RCPF Y 401/NCTC 885/653. Briefly: Antifungal susceptibility testing, C. albicans. To be noted: NCTC885, read-out: MIC for fungi strains inhibition, C. albicans.
From the text: as §2
The test system of data set [8] is Trichophyton rubrum RCPF F 1408. Briefly: Antifungal susceptibility testing, T. rubrum. To be noted: Trichophyton rubrum, RCPFF1408, read-out: MIC for fungi strains inhibition, T. rubrum.
From the text: as §2
The test system of data set [9] is Microsporum canis RCPF F 1643/1585. Kind of data set: Antifungal susceptibility testing, M. canis. Conditions: Microsporum canis, RCPFF1643/1585, read-out: MIC for fungi strains inhibition, M. canis.
From the text: as §2
The next data set has as its system Sprague-Dawley (SD) rats. Briefly: Hot plate test (analgesic activity). It counts as in vivo. Conditions: Rattus norvegicus, hot plate test, rats, ip, dose 15 mg/kg, n.a. = inactive (p > 0.05). Here is the method:
The hot plate test was conducted according to established guidelines on Sprague-Dawley (SD) rats (3 male and 3 female rodents per group). The compounds were intraperitoneally administered in the form of suspensions in 1% starch mucilage. Negative control group animals received vehicle only (1% starch mucilage). Diclofenac sodium (Hemofarm, Vršac, Serbia, 10 mg/kg in 1% starch mucilage solution) or metamizole sodium (PAO Biosynthesis, Sun Pharma, Penza, Russia, 15 mg/kg in 1% starch mucilage solution) were used as reference drugs. One and two hours after the injection, rats were placed on an electrically heated to 50 °C plate (Hot plate 60,200 series, TSE-systems, Bad Homburg, Germany) in a Plexiglas cylindrical restrainer (19 cm diameter × 30 cm). The nociceptive response time was measured by observing the appearance of rats’ movements (e.g., jumping, hind paw licking or shaking). Maximal cutoff time was set as 30 s regardless of the response in order to preclude skin damage.
Differences between the values of the latency period for the treated (experimental) and control groups of animals were considered significant at p ≤ 0.05.

In data set [10] the target is T2, human erythrocyte acetylcholinesterase (AChE, EC 3.1.1.7) (Homo sapiens, UniProt P22303).
T2 construct: human erythrocyte acetylcholinesterase (AChE, EC 3.1.1.7); purchased Sigma-Aldrich (Saint Louis, MO, USA); host or cells: human erythrocytes
Briefly: Inhibition of human erythrocyte acetylcholinesterase (Ellman assay). To be noted: read-out: Inhibition % at 20 µM, Human AChE. It counts as biochemical.
From the text: as §1
Reagent blanks consisted of reaction mixtures without enzyme to assess non-enzymatic hydrolysis of substrates.
Test compounds were dissolved in DMSO. Reaction mixtures contained a final DMSO concentration of 2% (v/v). […] Measurements were performed in a Bio-Rad Benchmark Plus microplate reader. Each experiment was performed in triplicate. Plots, linear regressions and values of IC50, were determined using Origin 6.1 for Windows, OriginLab (Northampton, MA, USA).

Setting [11] is: 1 h, read-out: Latent Period Prolongation, % 1 h.
The mark [12] stands for this setting: 2 h, read-out: Latent Period Prolongation, % 2 h.

Each structure is given as a SMILES string. In brackets after ≈: the same amount, converted by molar mass. Like-named read-outs stand apart in the source and are kept apart here.

T1 sequence (P81908 whole entry): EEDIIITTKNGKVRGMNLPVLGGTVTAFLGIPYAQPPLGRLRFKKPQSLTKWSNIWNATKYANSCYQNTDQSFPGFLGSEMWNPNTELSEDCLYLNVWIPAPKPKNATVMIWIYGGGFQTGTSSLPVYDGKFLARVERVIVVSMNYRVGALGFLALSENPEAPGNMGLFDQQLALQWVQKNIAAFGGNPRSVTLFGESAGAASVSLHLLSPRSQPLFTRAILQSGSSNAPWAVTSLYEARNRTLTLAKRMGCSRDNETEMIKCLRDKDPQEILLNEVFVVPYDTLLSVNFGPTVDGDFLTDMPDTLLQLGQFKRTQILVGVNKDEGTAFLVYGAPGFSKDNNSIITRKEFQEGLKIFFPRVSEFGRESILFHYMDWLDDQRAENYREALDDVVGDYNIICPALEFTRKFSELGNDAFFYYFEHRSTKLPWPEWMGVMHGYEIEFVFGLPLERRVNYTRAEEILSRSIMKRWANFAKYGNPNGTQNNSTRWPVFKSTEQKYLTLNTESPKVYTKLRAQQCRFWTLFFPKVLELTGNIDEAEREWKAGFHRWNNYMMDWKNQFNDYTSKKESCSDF
T2 sequence (P22303 32-617 isoform P22303-2 limits assumed): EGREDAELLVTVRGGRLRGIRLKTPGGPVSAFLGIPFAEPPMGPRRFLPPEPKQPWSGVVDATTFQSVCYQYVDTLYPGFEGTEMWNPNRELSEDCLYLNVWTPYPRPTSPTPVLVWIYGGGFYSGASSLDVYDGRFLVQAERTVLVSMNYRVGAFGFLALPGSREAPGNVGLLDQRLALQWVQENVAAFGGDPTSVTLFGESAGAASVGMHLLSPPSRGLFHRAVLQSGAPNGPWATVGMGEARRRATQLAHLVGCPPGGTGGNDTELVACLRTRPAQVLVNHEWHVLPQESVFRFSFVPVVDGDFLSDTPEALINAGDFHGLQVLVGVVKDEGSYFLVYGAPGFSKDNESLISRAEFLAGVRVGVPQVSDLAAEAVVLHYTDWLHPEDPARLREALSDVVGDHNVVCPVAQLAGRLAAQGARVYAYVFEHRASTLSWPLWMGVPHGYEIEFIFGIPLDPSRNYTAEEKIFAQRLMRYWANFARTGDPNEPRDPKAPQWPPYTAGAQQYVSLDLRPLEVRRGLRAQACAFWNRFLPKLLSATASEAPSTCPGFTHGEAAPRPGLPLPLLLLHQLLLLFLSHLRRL

Turning to `O=C1/C(=N\Nc2ccccc2)C(C(F)(F)F)=NN1c1ccccc1` [5e, (4Z)-2-Phenyl-4-(2-phenylhydrazinylidene)-5-(trifluoromethyl)-2,4-dihydro-3H-pyrazol-3-one], the “ABTS•+-scavenging activity, TEAC (trolox equivalent antioxidant capacity)” value (shortened to “ABTS•+-scavenging activity, TEAC”) in [1] is reported as 0.02. Besides, the MIC in data set [2] was 200 µg/mL (≈ 602 µM); in data set [3], above 250 µg/mL; in data set [7] it was above 200 µg/mL; in [8], 200 µg/mL (≈ 602 µM); in [9], 200 µg/mL (≈ 602 µM). For the same molecule, the survival at 14 days in data set [4] amounted to 100%. Further, the “ORAC-FL (TE, antioxidant activity in Trolox equivalents)” value (“ORAC-FL” below) in [5] is on record as “i.t.s”. Further, the inhibition at 20 µM in data set [6] stood at 5.1 ± 0.9%. Besides, the change in vivo at 15 mg/kg in the data set on Sprague-Dawley (SD) rats (setting [11]) was found to be 100%; with Sprague-Dawley (SD) rats (setting [12]), 129%.

Consider `COc1ccc(N/N=C2\C(=O)N(c3ccccc3)N=C2C(F)(F)F)cc1` [5g, (4Z)-4-(2-(4-Methoxyphenyl)hydrazinylidene)-2-phenyl-5-(trifluoromethyl)-2,4-dihydro-3H-pyrazol-3-one], for which, in data set [1], the IC50 amounted to 55.6 ± 2.4 µM and the “ABTS•+-scavenging activity, TEAC” value was 0.35 ± 0.03. In addition, the MIC in data set [3] came to 0.9 µg/mL (≈ 2.48 µM). Also, in data set [4], the survival at 14 days was determined as 100%. Besides, the “ORAC-FL” value in data set [5] is 2.20 ± 0.36. Besides, the inhibition at 20 µM in [10] was 12.3 ± 2.3%. Moreover, the change in vivo at 15 mg/kg in the data set with Sprague-Dawley (SD) rats (setting [12]) came to 76.9%.

Take `CCOC(=O)c1ccc(N/N=C2\C(=O)N(c3ccccc3)N=C2C(F)(F)F)cc1` [5l, (4Z)-4-[2-(4-Ethoxycarbonyl)hydrazinylidene]-2-phenyl-5-(trifluoromethyl)-2,4-dihydro-3H-pyrazol-3-one]: the MIC in [3] was 31.2 µg/mL (≈ 77.2 µM). Moreover, in [4], the survival at 14 days stood at 100%. For the same molecule, in data set [5], the “ORAC-FL” value was “i.t.s”. For the same molecule, the inhibition at 20 µM in data set [6] was determined as 3.2 ± 0.8%; in data set [10], 16.7 ± 1.5%. For the same molecule, the change in vivo at 15 mg/kg in the data set on Sprague-Dawley (SD) rats (setting [11]) came to 68.1%; in the data set with Sprague-Dawley (SD) rats (setting [12]) it was 107%.

As to `Cc1ccc(N/N=C2\C(=O)N(c3ccc(S(C)(=O)=O)cc3)N=C2C(F)(F)F)cc1` [5q, (4Z)-2-[4-(Methylsulfonyl)phenyl]-4-[2-(4-methylphenyl)hydrazinylidene]-5-(trifluoromethyl)-2,4-dihydro-3H-pyrazol-3-one], the “ABTS•+-scavenging activity, TEAC” value in [1] is given as 0.02 ± 0.001. The MIC in data set [3] was above 250 µg/mL. The molecule also displayed a survival at 14 days in data set [4] of 100%. Besides, the “ORAC-FL” value in data set [5] is on record as “i.t.s”. For the same molecule, the inhibition at 20 µM in data set [10] came out at 4.3 ± 0.8%. The figures for the change in vivo at 15 mg/kg with Sprague-Dawley (SD) rats (setting [11]) and in the data set with Sprague-Dawley (SD) rats (setting [12]) were 104% and 110%, respectively.

For `O=C1/C(=N\Nc2ccccc2Cl)C(C(F)(F)C(F)(F)F)=NN1c1ccccc1` [6c, (4Z)-4-[2-(2-Chlorophenyl)hydrazinylidene]-5-(pentafluoroethyl)-2-phenyl-2,4-dihydro-3H-pyrazol-3-one], the MIC in data set [2] was above 200 µg/mL; in [3], above 250 µg/mL; in data set [7], above 200 µg/mL; in [8], 200 µg/mL (≈ 480 µM); in [9], above 200 µg/mL. In data set [4], this molecule showed a survival at 14 days of 100%. The inhibition at 20 µM in data set [6] came to 6.5 ± 1%; in data set [10] it was 3.3 ± 0.6%. The change in vivo at 15 mg/kg in the data set on Sprague-Dawley (SD) rats (setting [11]) came to 75%; with Sprague-Dawley (SD) rats (setting [12]), 51%.
